Measurements taken from publication PMC5881582 (ChemMedChem, 2017).
Read-outs that look alike come from different tables or passages of the source.

How the values were obtained:
[1] = test system: acetylation of histones H3 and H4 in SH-SY5Y cells; assay: histone H3 and H4 acetylation by Western blot; assay type: cell-based, human; details: 5 µM; for acetylation of H3 and H4: 6 h; for time-dependent increase in acetylation of H3 and H4: 24 h
[2] = test system: acetylation of histones H3 and H4 in HT-29 cells; assay: histone H3 and H4 acetylation by Western blot; assay type: cell-based, human; details: HT-29, 5 µM; for time-dependent increase in acetylation of H3 and H4: 24 h
[3] = test system: acetylation of α-tubulin (HDAC6 substrate) in SH-SY5Y cells; assay: α-tubulin acetylation by Western blot; assay type: cell-based, human; details: 5 µM, 6 h
[4] = test system: acetylation of α-tubulin (HDAC6 substrate) in HT-29 cells; assay: α-tubulin acetylation by Western blot; assay type: cell-based, human; details: HT-29, 5 µM; for acetylation level of α-tubulin: 6 h; for time-dependent increase in acetylation of α-tubulin: 24 h
[5] = target: recombinant human HDAC1 (Homo sapiens, UniProt Q13547); assay: competitive fluorescence-based HDAC deacetylase assay, Boc-L-Lys; assay type: biochemical; details: read-out: IC50 HDAC1; mean ± SD of at least two independent experiments
[6] = target: T1, purified recombinant human HDAC8 (Homo sapiens, UniProt Q9BY41); assay: fluorescence-based HDAC8 assay, commercially available HDAC substrate; assay type: biochemical; details: for Selectivity HDAC8/HDAC1: HDAC8 IC50 divided by HDAC1 IC50; for IC50: read-out: IC50 HDAC8, mean ± SD of at least two independent experiments
T1 sequence (Q9BY41 1-377): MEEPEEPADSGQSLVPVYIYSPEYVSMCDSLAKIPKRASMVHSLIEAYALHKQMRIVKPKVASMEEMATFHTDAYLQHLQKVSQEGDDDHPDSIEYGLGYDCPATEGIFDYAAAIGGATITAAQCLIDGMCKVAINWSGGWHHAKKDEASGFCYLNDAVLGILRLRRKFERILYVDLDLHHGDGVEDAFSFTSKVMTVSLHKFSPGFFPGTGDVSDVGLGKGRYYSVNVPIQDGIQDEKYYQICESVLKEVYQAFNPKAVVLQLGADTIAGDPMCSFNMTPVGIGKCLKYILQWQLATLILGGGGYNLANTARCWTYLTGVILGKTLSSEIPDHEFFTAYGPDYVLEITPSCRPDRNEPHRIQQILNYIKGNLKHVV

[7] = test system: HT-29 cells; assay: antiproliferative alamarBlue assay; details: n=4
[8] = target: recombinant human HDAC2 (Homo sapiens, UniProt Q92769); assay: competitive fluorescence-based HDAC deacetylase assay, Boc-L-Lys; assay type: biochemical; details: for Selectivity HDAC2/HDAC1: HDAC2 IC50 divided by HDAC1 IC50; for IC50: read-out: IC50 HDAC2, mean ± SD of at least two independent experiments
[9] = test system: SH-SY5Y cells; assay: antiproliferative alamarBlue assay; details: n=4
[10] = target: recombinant human HDAC3 (Homo sapiens, UniProt O15379); assay: competitive fluorescence-based HDAC deacetylase assay, Boc-L-Lys; assay type: biochemical; details: for Selectivity HDAC3/HDAC1: HDAC3 IC50 divided by HDAC1 IC50; for IC50: read-out: IC50 HDAC3, mean ± SD of at least two independent experiments
[11] = microsomal stability; assay type: in vitro ADME, rat; details: after 30 min incubation
[12] = test system: MCF-7 cells; assay: antiproliferative alamarBlue assay; details: 10 µM, NA = no inhibition at 10 µM
[13] = plasma and brain concentrations after i.p. dosing; assay type: in vivo, Spraugue Dawley rats
[14] = microsomal stability; assay type: in vitro ADME, human; details: after 30 min incubation
[15] = read-out: EC50 HT-29 24 h, 24 h
[16] = read-out: EC50 HT-29 48 h, 48 h
[17] = read-out: EC50 SH-SY5Y 24 h, 24 h
[18] = read-out: EC50 SH-SY5Y 48 h, 48 h

Chain of recombinant human HDAC2 (Q92769 whole entry): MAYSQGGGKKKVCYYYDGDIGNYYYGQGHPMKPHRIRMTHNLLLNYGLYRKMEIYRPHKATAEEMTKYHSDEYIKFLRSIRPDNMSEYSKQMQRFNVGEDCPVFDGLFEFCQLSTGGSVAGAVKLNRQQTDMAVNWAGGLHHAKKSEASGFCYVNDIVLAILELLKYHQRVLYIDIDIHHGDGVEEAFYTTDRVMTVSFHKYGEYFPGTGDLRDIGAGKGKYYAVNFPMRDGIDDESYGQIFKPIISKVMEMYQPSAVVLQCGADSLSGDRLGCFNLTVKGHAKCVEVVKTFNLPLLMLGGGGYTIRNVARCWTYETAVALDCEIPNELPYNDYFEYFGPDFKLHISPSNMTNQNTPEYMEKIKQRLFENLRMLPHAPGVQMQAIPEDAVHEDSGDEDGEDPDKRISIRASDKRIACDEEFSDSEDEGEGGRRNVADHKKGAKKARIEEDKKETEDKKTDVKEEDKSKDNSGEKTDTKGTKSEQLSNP
Chain of recombinant human HDAC3 (O15379 whole entry): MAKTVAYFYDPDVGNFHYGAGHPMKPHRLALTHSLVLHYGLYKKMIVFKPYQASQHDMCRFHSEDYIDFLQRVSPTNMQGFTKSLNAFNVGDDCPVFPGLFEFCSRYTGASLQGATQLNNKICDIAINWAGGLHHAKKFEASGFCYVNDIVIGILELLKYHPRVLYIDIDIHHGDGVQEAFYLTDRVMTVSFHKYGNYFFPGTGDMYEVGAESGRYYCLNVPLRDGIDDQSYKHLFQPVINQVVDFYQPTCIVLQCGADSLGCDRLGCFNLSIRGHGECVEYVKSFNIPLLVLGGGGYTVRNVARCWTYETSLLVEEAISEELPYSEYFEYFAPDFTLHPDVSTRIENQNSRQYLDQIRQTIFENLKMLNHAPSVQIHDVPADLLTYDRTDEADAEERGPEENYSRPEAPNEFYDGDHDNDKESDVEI
Chain of recombinant human HDAC3 (Q9Y618 395-489 partner limits assumed): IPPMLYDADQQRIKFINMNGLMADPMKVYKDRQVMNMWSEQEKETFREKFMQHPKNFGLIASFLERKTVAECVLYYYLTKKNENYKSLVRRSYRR
Chain of recombinant human HDAC1 (Q13547 whole entry): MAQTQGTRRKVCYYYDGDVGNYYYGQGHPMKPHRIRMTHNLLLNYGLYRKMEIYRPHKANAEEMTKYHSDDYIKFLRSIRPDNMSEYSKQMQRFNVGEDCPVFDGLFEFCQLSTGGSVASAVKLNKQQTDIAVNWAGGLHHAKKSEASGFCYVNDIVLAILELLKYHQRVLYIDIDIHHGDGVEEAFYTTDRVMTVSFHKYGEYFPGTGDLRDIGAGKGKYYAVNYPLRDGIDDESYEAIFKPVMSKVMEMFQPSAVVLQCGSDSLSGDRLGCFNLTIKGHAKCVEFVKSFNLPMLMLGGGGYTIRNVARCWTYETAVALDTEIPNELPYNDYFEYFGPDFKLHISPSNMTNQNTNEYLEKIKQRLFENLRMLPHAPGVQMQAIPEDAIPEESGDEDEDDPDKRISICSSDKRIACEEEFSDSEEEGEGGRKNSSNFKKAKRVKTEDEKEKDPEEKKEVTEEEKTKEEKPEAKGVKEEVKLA

| IC50 [5] [nM] | Selectivity HDAC8/HDAC1 [6] | IC50 [6] [nM] | EC50 [7, 15] [nM] | EC50 [7, 16] [nM] | Selectivity HDAC2/HDAC1 [8] | IC50 [8] [nM] | EC50 [9, 17] [nM] | EC50 [9, 18] [nM] | Selectivity HDAC3/HDAC1 [10] | IC50 [10] [nM] | SMILES | acetylation of H3 and H4 [1] | time-dependent increase in acetylation of H3 and H4 [1] | acetylation level of H3 ([2]; 6 h) | time-dependent increase in acetylation of H3 and H4 [2] | acetylation of α-tubulin [3] | acetylation level of α-tubulin [4] | time-dependent increase in acetylation of α-tubulin [4] | other results |
| --- | --- | --- | --- | --- | --- | --- | --- | --- | --- | --- | --- | --- | --- | --- | --- | --- | --- | --- | --- |
| – | – | – | – | – | – | – | – | – | – | – | O=C(CCCCCCC(=O)Nc1ccccc1)NO [compound 1, SAHA, reference compound] | acetylation of both H3 and H4 was increased | time-dependent increase in acetylation of H3 and H4 was observed | increased the acetylation level of H3 | unable to cause any significant time-dependent increase | increased the acetylation of α-tubulin | increased the acetylation level of α-tubulin | time-dependent increase in acetylation of α-tubulin | – |
| 39 ± 3 | 8.2 | 320 ± 26 | > 50000 | 1100 ± 110 | 8.2 | 320 ± 13 | > 50000 | 1200 ± 220 | 1.7 | 68 ± 2 | O=C(CCCCCCNCc1ccc2ccccc2c1)NO [compound 2g] | acetylation of both H3 and H4 was increased | time-dependent increase in acetylation of H3 and H4 was observed | increased the acetylation level of H3 | time-dependent increase in acetylation of H3 and H4 was observed | increased the acetylation of α-tubulin | increased the acetylation level of α-tubulin | – | acetylation of H4 ([2]; 6 h): significantly increase acetylation of H4 |
| 61 ± 5.9 | 10 | 620 ± 42 | > 50000 | 2100 ± 170 | 4.2 | 260 ± 15 | > 50000 | 1300 ± 390 | 0.41 | 25 ± 2 | O=C(CCCCCCNCc1cc2ccccc2[nH]1)NO [compound 2j] | acetylation of both H3 and H4 was increased | time-dependent increase in acetylation of H3 and H4 was observed | increased the acetylation level of H3 | time-dependent increase in acetylation of H3 and H4 was observed | increased the acetylation of α-tubulin | increased the acetylation level of α-tubulin | time-dependent increase in acetylation of α-tubulin | percent left in RLM [11]: 85%; Growth inhibition percentage MCF-7 24 h [12]: 61%; brain concentration fold above IC50 for HDAC1 ([13]; 20 min): 6.7 fold; brain concentration fold above IC50 for HDAC2 ([13]; 20 min): 1.6 fold; brain concentration fold above IC50 for HDAC3 ([13]; 20 min): 16 fold; plasma concentration fold higher than IC50 for HDAC1 ([13]; 20 min): 230 fold; plasma concentration fold higher than IC50 for HDAC2 ([13]; 20 min): 54 fold; plasma concentration fold higher than IC50 for HDAC3 ([13]; 20 min): 560 fold; plasma concentration fold higher than IC50 for HDAC8 ([13]; 20 min): 23 fold; brain concentration fold higher than the IC50 for class I HDACs ([13]; abstract): > 1.6 fold; plasma concentration fold higher than the IC50 for class I HDACs ([13]; abstract): > 23 fold; Plasma level ([13]; rat, 25 mg/kg i.p., 20 min): 3820 ± 2050 ng/mL; molar concentration in brain ([13]; rat, 25 mg/kg i.p., 20 min): 0.41 µM; molar concentration in plasma ([13]; rat, 25 mg/kg i.p., 20 min): 14 µM; rat brain level ([13]; rat, 25 mg/kg i.p., 20 min): 122 ± 21 ng/mL; Plasma level ([13]; rat, 25 mg/kg i.p., 40 min): 2100 ± 720 ng/mL; rat brain level ([13]; rat, 25 mg/kg i.p., 40 min): 107 ± 15 ng/mL; percent left in HLM [14]: 12% |
